Source: patent US5723609A, “Bis (hydroxymethyl) cyclobutyl purines” (E. R. Squibb & Sons, Inc., priority 1989, dated 1998)
Read-outs that look alike come from different tables or passages of the source.

Columns and labels:
[1] = test system: HSV-1; assay: HSV-1 plaque reduction antiviral assay in WI-38 cell monolayers; type: cell-based, herpes simplex virus type 1; conditions: Human alphaherpesvirus 1, 96 h; HSV-1 strain Schooler; WI-38 cells; 4 days at 37° C.; at least 50% plaque reduction; read-out: ID50 (the source's name)
Method: (§1) Assays were performed in cell culture systems to determine the concentrations of compounds that are effective in preventing several kinds of viral infections.
(§2) HSV-1 (herpes simplex virus type 1, strain Schooler), HSV-2 (herpes simplex virus type 2, strain 186), VZV (varicella zoster virus, strain ELLEN), HCMV (human cytomegalovirus, strain AD 169), MuLV (murine leukemia virus, strain CAS), HIV (human immunodeficiency virus, strain HTLV-IIIB).
(§3) HSV-1, HSV-2, HCMV, and VZV antiviral assays:
(§4) Virus was adsorbed to WI-38 cell culture monolayers in 6 well culture plates (Costar, Cambridge, Mass.) for 1 hour prior to addition of maintenance medium containing duplicate dilutions of the test compound. Inhibition of plaque development was evaluated on fixed and stained monolayers after 4 days incubation at 37° C. for HSV-1 and HSV-2 and after 6-7 days incubation at 37° C. for HCMV and VZV. ID50 values were determined from the drug concentration which conferred at least a 50% plaque reduction compared to virus controls.

[2] = test system: HSV-2; assay: HSV-2 plaque reduction antiviral assay in WI-38 cell monolayers; type: cell-based, herpes simplex virus type 2, strain 186
Method: as §1, §2, §3, §4

[3] = test system: VZV; assay: VZV plaque reduction antiviral assay in WI-38 cell monolayers; type: cell-based, varicella zoster virus; conditions: Human alphaherpesvirus 3; VZV strain ELLEN; WI-38 cells; 6-7 days at 37° C.; at least 50% plaque reduction; read-out: ID50 (the source's name)
Method: as §1, §2, §3, §4

[4] = test system: HCMV; assay: HCMV plaque reduction antiviral assay in WI-38 cell monolayers; type: cell-based, human cytomegalovirus; conditions: Human betaherpesvirus 5; HCMV strain AD 169; WI-38 cells; 6-7 days at 37° C.; at least 50% plaque reduction; read-out: ID50 (the source's name)
Method: as §1, §2, §3, §4

[5] = test system: MuLV; assay: MuLV antiviral assay, syncytial plaques (SC-1 cells, XC cell overlay); type: cell-based; conditions: Murine leukemia virus, SC1, MuLV strain CAS, read-out: ID50 (the source's name)
Method: as §1, §2
Antiviral assays using MuLV were performed with some modification, as described by Rowe et al. and Shannon et al., SC-1 cells were planted at approximately 2×10^5 cell per well in 6 well plates. After overnight incubation at 37° C., the cell cultures were sensitized with DEAE-Dextran for one hour at 37° C., rinsed and inoculated with MuLV. Cultures were re-fed with growth medium containing different concentrations of the test compound. After three more days at 37° C., cultures were re-fed with fresh medium plus test compounds and incubated at 37° C. for an additional 3 days. Cultures were then washed to remove medium, ultraviolet light irradiated, and planted with approximately 5×10^5 XC cells per well in cell growth medium containing the appropriate concentration of the test compound. […] Finally the cultures were rinsed, stained and syncytial plaques were counted.

[6] = test system: HIV; assay: HIV antiviral assay, cytopathic effect in CEM cells (XTT-PMS); type: cell-based; conditions: Human immunodeficiency virus 1, CCRF-CEM, 168 h, HIV strain HTLV-IIIB, 7 days at 37° C., inhibits CPE by 50%, read-out: ID50 (the source's name)
Method: as §1, §2
HIV antiviral assay: Suspensions of CEM(Nara and Fischinger, Nature, 332:469, 1988) cells were infected at a multiplicity of infection (e.g. virus/cell) of 0.12 with HIV (strain HTLV-III B). […] Following incubation, viable cell numbers were counted in each well using a colorimetric assay following incubation of cells with XTT-PMS solution (XTT tetrazolium reagent plus phenazine methosulfate PMS).
Percent reduction of vital cytopathic effect (CPE) in drug treated compared to untreated virus infected cells, and percent reduction of cell viability in drug treated uninfected cells compared to untreated controls were calculated and plotted versus the drug concentrations tested. […]

[7] = Human alphaherpesvirus 2, WI-38, 96 h, read-out: ID50
[8] = Human alphaherpesvirus 2, 96 h, HSV-2 strain 186, WI-38 cells, 4 days at 37° C., at least 50% plaque reduction, read-out: ID50 (the source's name)

Question: What does the source list for `O=c1[nH]c(=O)n([C@@H]2C[C@H](CO)[C@H]2CO)cc1/C=C/Br` (relative stereo) [[1α(E),2β,3α]-1-[2,3-Bis(hydroxymethyl)cyclobutyl]-5-(2-bromoethenyl)-2,4(1H,3H)pyrimidinedione]?
Answer: IC50 [1]: 10 to 30 µM; IC50 [2, 7]: > 302 µM; IC50 [3]: 0.03 to 0.06 µM; IC50 [4]: > 302 µM

Question: Which IC50 [1] does the source give for `Nc1nc2c(nnn2[C@@H]2C[C@H](CO)[C@H]2CO)c(=O)[nH]1` (relative stereo) [(1α,2β,3α)-5-Amino-3-[2,3-bis(hydroxymethyl)cyclobutyl]-3,6-dihydro-7H-1,2,3-triazolo[4,5-d]pyrimidin-7-one] here?
Answer: 7.5 µM

Question: What about the IC50 [2, 8] of the same compound?
Answer: 7.5 µM

Question: And the IC50 [3]?
Answer: 3.8 to 38 µM

Question: What about the IC50 [4] of the same compound?
Answer: 376 µM

Question: What does the source list for `Nc1ccn([C@@H]2C[C@H](CO)[C@H]2CO)c(=O)n1` (relative stereo) [(1α,2β,3α)-4-Amino-1-[2,3-bis(hydroxymethyl)cyclobutyl]-2(1H)-pyrimidinone]?
Answer: IC50 [1]: 444 µM; IC50 [2, 8]: 444 µM; IC50 [3]: 22 µM; IC50 [4]: 22 to 44 µM

Question: Which IC50 [1] does the source give for `Nc1nc2c(ncn2[C@@H]2C[C@H](CO)[C@H]2CO)c(=O)[nH]1` (relative stereo) [(1α,2β,3α)-9-[2,3-Bis(hydroxymethyl)cyclobutyl]guanine] here?
Answer: 0.08 to 0.2 µM

Question: What about the IC50 [2, 8] of the same compound?
Answer: 0.04 to 0.08 µM

Question: What about the IC50 [3] of the same compound?
Answer: 0.2 µM

Question: And the IC50 [4]?
Answer: 3.8 µM

Question: And the IC50 [5]?
Answer: 3.8 µM

Question: And the IC50 [6]?
Answer: 30 µM

Question: Which IC50 [1] does the source give for `O=c1[nH]c(=O)n([C@@H]2C[C@H](CO)[C@H]2CO)cc1I` (relative stereo) [(1α,2β,3α)-1-[2,3-Bis(hydroxymethyl)cyclobutyl]-5-iodo-2,4(1H,3H)-pyrimidinedione] here?
Answer: 6 to 14 µM

Question: What about the IC50 [2, 7] of the same compound?
Answer: > 284 µM

Question: And the IC50 [3]?
Answer: 14 to 28 µM

Question: And the IC50 [4]?
Answer: > 284 µM

Question: Which IC50 [1] does the source give for `Nc1ncnc2c1ncn2[C@@H]1C[C@H](CO)[C@H]1CO` (relative stereo) [(1α,2β,3α)-3-(6-Amino-9H-purin-9-yl)-1,2-cyclobutanedimethanol] here?
Answer: 8 µM

Question: And the IC50 [2, 8]?
Answer: 4 to 8 µM

Question: And the IC50 [3]?
Answer: 0.8 to 2 µM

Question: What about the IC50 [4] of the same compound?
Answer: 0.8 µM

Question: And the IC50 [6]?
Answer: 6.8 µM
